Measured values as given in the kinase profiling compilation of Christmann-Franck et al. (2016).

Key:
Experiment in all cases: KINOMEscan competition binding
Settings in all cases: compound 10.0 µM
BMPR1B (human) = BMPR1B (human) (UniProt O00238)
IRAK3 (human) = IRAK3 (human) (UniProt Q9Y616)
BTK (human) = BTK (human) (UniProt Q06187)
PRKD2 (human) = PRKD2 (human) (UniProt Q9BZL6)
MAPK10 (human) = MAPK10 (human) (UniProt P53779)
AXL (human) = AXL (human) (UniProt P30530)
PIP4K2B (human) = PIP4K2B (human) (UniProt P78356)
MAP3K4 (human) = MAP3K4 (human) (UniProt Q9Y6R4)
MKNK1 (human) = MKNK1 (human) (UniProt Q9BUB5)
[1] = system: PIK3CA (human), P42336 [E542K]
MAP3K5 (human) = MAP3K5 (human) (UniProt Q99683)
DDR1 (human) = DDR1 (human) (UniProt Q08345)
CHUK (human) = CHUK (human) (UniProt O15111)
TNNI3K (human) = TNNI3K (human) (UniProt Q59H18)
PHKG1 (human) = PHKG1 (human) (UniProt Q16816)
WEE2 (human) = WEE2 (human) (UniProt P0C1S8)
ROCK2 (human) = ROCK2 (human) (UniProt O75116)
EPHA1 (human) = EPHA1 (human) (UniProt P21709)
STK10 (human) = STK10 (human) (UniProt O94804)
PRKX (human) = PRKX (human) (UniProt P51817)
CSNK1G1 (human) = CSNK1G1 (human) (UniProt Q9HCP0)
CDK2 (human) = CDK2 (human) (UniProt P24941)
AKT1 (human) = AKT1 (human) (UniProt P31749)
PIK3CD (human) = PIK3CD (human) (UniProt O00329)
EPHA5 (human) = EPHA5 (human) (UniProt P54756)
MYO3B (human) = MYO3B (human) (UniProt Q8WXR4)
NTRK3 (human) = NTRK3 (human) (UniProt Q16288)
CLK2 (human) = CLK2 (human) (UniProt P49760)
PIM3 (human) = PIM3 (human) (UniProt Q86V86)
[2] = system: KIT (human), P10721 [L576P]
FLT3 (human) = FLT3 (human) (UniProt P36888)
PRKAA1 (human) = PRKAA1 (human) (UniProt Q13131)
CAMK1D (human) = CAMK1D (human) (UniProt Q8IU85)
ULK1 (human) = ULK1 (human) (UniProt O75385)
RPS6KA2 KD1 (human) = RPS6KA2 KD1 (human) (UniProt Q15349)
MAP3K3 (human) = MAP3K3 (human) (UniProt Q99759)
MAP3K9 (human) = MAP3K9 (human) (UniProt P80192)
CaMK1 (human) = CaMK1 (human) (UniProt Q14012)
MINK1 (human) = MINK1 (human) (UniProt Q8N4C8)
BLK (human) = BLK (human) (UniProt P51451)
PIK3C2B (human) = PIK3C2B (human) (UniProt O00750)
NEK7 (human) = NEK7 (human) (UniProt Q8TDX7)
Chain of NEK7 (human) (Q8TDX7 whole entry, looked up): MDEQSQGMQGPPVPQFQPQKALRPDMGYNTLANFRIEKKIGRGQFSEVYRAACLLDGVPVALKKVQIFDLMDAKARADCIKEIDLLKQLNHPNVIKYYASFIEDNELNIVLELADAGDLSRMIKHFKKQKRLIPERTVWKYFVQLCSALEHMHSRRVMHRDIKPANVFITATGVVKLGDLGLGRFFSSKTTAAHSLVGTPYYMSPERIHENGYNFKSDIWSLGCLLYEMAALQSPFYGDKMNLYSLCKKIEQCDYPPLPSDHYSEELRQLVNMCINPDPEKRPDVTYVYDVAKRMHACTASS

Chain of MAP3K9 (human) (P80192 whole entry, looked up): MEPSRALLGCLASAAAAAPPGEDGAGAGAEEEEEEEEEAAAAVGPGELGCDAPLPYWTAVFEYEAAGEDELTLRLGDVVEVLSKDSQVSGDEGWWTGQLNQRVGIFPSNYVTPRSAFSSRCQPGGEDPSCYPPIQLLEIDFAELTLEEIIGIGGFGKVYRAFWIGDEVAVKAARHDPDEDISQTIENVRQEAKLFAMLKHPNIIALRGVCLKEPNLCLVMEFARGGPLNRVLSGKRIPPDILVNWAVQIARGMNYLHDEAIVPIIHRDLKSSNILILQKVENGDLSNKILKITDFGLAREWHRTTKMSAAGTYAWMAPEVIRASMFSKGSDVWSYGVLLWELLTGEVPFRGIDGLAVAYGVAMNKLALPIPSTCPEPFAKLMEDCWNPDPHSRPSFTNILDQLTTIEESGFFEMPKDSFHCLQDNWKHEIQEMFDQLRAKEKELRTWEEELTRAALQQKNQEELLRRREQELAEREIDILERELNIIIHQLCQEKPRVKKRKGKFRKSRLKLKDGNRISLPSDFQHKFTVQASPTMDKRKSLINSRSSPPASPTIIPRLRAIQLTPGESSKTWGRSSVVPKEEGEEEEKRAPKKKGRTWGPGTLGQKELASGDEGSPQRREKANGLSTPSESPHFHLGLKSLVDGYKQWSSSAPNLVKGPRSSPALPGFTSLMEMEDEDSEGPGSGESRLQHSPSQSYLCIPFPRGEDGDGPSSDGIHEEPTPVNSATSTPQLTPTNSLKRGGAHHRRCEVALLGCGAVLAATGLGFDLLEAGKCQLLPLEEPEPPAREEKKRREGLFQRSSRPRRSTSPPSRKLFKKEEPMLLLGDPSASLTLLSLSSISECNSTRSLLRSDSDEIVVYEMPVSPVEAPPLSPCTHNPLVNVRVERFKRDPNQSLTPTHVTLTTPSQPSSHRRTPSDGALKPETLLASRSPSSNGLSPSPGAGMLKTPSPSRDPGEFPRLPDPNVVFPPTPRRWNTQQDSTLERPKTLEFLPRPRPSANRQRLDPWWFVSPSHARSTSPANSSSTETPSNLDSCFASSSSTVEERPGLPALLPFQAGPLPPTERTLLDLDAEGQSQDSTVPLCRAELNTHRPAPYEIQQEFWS
Chain of MKNK1 (human) (Q9BUB5 whole entry, looked up): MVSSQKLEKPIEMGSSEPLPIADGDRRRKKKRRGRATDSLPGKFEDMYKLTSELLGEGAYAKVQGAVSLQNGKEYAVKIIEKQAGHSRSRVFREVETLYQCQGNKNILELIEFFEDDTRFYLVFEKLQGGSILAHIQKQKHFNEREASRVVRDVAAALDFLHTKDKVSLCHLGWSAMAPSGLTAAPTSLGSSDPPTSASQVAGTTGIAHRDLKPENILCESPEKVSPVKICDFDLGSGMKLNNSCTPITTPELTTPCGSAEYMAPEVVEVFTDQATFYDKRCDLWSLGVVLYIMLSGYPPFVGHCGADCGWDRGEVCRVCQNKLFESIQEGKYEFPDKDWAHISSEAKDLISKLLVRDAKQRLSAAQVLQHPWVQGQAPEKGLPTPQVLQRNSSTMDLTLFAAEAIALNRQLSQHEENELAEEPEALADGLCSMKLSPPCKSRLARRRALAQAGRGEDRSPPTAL
Chain of PRKX (human) (P51817 whole entry, looked up): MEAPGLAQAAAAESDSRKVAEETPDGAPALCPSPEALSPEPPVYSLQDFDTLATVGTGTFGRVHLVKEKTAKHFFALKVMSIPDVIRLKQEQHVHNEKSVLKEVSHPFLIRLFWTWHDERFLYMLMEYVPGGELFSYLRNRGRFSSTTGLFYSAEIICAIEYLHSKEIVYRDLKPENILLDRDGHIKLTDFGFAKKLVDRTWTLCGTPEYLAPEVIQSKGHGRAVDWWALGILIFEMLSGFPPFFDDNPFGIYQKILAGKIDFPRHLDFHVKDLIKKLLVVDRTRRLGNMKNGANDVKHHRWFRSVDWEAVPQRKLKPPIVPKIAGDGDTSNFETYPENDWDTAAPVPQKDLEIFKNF
Chain of MAP3K3 (human) (Q99759 whole entry, looked up): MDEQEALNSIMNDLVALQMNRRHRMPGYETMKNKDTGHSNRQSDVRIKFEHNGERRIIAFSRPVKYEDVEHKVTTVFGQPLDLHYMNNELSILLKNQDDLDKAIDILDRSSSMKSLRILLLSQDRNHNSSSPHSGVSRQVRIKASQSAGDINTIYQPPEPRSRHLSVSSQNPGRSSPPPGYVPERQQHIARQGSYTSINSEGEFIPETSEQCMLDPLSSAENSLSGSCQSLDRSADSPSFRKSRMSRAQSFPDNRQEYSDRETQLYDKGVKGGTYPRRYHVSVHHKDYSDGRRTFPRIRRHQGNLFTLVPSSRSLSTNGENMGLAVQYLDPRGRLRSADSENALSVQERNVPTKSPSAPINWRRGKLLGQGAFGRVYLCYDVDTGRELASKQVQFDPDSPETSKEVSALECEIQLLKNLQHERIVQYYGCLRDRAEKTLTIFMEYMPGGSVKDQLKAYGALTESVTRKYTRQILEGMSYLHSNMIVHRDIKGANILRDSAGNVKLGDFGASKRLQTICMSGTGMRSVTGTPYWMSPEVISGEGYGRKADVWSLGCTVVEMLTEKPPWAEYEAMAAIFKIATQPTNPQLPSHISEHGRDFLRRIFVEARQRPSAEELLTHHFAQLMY
Chain of EPHA1 (human) (P21709 whole entry, looked up): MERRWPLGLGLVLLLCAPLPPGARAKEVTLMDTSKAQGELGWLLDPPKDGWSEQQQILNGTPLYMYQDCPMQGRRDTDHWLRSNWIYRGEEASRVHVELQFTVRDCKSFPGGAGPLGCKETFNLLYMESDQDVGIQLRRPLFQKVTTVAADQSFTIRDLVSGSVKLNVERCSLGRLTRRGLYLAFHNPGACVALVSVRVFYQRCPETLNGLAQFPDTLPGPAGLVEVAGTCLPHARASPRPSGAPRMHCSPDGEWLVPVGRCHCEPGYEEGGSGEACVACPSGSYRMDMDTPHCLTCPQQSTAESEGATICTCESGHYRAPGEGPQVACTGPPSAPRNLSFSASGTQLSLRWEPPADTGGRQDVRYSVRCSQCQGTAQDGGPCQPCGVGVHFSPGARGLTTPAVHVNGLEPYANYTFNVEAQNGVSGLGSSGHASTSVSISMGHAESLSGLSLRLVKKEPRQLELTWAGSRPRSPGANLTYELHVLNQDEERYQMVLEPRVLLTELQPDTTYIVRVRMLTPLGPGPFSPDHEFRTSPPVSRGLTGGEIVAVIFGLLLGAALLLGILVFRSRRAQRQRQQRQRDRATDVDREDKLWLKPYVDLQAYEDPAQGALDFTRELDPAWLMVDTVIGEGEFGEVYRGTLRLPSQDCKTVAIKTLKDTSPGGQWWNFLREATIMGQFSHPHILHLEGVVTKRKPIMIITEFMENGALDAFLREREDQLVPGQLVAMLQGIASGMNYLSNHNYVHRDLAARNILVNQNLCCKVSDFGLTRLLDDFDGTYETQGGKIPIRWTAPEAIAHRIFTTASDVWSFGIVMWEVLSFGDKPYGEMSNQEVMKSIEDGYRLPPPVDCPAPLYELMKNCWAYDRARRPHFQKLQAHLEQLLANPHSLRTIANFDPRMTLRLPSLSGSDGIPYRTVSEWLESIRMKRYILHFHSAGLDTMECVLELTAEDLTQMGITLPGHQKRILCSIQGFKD
Chain of TNNI3K (human) (Q59H18 whole entry, looked up): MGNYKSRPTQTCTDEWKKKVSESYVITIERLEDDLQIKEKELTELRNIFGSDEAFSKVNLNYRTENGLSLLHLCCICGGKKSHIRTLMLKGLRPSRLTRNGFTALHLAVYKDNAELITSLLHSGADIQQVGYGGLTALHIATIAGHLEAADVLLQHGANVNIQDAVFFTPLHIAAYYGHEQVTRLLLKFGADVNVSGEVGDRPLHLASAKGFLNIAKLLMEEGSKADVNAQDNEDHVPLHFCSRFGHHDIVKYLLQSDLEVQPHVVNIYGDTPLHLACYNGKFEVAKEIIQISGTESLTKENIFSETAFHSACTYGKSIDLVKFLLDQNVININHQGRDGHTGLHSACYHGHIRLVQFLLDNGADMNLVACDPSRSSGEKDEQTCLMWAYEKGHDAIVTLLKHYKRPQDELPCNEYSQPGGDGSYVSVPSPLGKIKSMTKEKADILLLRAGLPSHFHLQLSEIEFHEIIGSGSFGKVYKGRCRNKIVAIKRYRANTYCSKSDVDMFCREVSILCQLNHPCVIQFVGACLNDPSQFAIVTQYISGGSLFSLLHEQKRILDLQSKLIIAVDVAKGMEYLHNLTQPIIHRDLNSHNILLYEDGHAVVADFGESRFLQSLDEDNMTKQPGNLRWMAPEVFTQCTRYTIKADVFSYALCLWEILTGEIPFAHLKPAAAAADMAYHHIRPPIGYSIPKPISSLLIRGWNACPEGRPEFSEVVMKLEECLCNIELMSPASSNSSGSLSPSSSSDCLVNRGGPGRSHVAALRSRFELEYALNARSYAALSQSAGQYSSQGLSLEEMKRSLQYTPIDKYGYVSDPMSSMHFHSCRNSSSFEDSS

## O=C1Nc2cc(Br)ccc2/C1=C1/Nc2ccccc2/C1=N\O
BMPR1B (human)
  kinase still bound, per cent of control: 50%
IRAK3 (human)
  kinase still bound, per cent of control: 26%
BTK (human)
  kinase still bound, per cent of control: 38%
PRKD2 (human)
  kinase still bound, per cent of control: 100%
MAPK10 (human)
  kinase still bound, per cent of control: 12%
AXL (human)
  kinase still bound, per cent of control: 0.25%
PIP4K2B (human)
  kinase still bound, per cent of control: 1.5%
MAP3K4 (human)
  kinase still bound, per cent of control: 85%
MKNK1 (human)
  kinase still bound, per cent of control: 51%
[1]
  kinase still bound, per cent of control: 100%
MAP3K5 (human)
  kinase still bound, per cent of control: 100%
DDR1 (human)
  kinase still bound, per cent of control: 55%
CHUK (human)
  kinase still bound, per cent of control: 83%
TNNI3K (human)
  kinase still bound, per cent of control: 68%
PHKG1 (human)
  kinase still bound, per cent of control: 15%
WEE2 (human)
  kinase still bound, per cent of control: 100%
ROCK2 (human)
  kinase still bound, per cent of control: 93%
EPHA1 (human)
  kinase still bound, per cent of control: 85%
STK10 (human)
  kinase still bound, per cent of control: 75%
PRKX (human)
  kinase still bound, per cent of control: 100%
CSNK1G1 (human)
  kinase still bound, per cent of control: 39%
CDK2 (human)
  kinase still bound, per cent of control: 14%
AKT1 (human)
  kinase still bound, per cent of control: 100%
PIK3CD (human)
  kinase still bound, per cent of control: 100%
EPHA5 (human)
  kinase still bound, per cent of control: 30%
MYO3B (human)
  kinase still bound, per cent of control: 100%
NTRK3 (human)
  kinase still bound, per cent of control: 16%
CLK2 (human)
  kinase still bound, per cent of control: 8.2%
PIM3 (human)
  kinase still bound, per cent of control: 30%
[2]
  kinase still bound, per cent of control: 0%
FLT3 (human)
  kinase still bound, per cent of control: 0.05%
PRKAA1 (human)
  kinase still bound, per cent of control: 4%
CAMK1D (human)
  kinase still bound, per cent of control: 45%
ULK1 (human)
  kinase still bound, per cent of control: 7.3%
RPS6KA2 KD1 (human)
  kinase still bound, per cent of control: 2.2%
MAP3K3 (human)
  kinase still bound, per cent of control: 38%
MAP3K9 (human)
  kinase still bound, per cent of control: 3.4%
CaMK1 (human)
  kinase still bound, per cent of control: 28%
MINK1 (human)
  kinase still bound, per cent of control: 6.2%
BLK (human)
  kinase still bound, per cent of control: 0.05%
PIK3C2B (human)
  kinase still bound, per cent of control: 100%
NEK7 (human)
  kinase still bound, per cent of control: 100%
